Patent publication US20230085307A1, “PYRIDAZINONE COMPOUND AND HERBICIDE” (NISSAN CHEMICAL CORPORATION, priority 2019, published 2023)

Columns and labels:
windgrass [1] = experiment: Test Example 4: herbicidal effect by soil treatment (Table 19, symbol L); type: in vivo, windgrass (Apera spica-venti); details: 320 g/ha
How it was run: (§1)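 Soil-surface application: an emulsion agent diluted with water to the predetermined dose is sprayed uniformly over seeds lying under roughly 1.5 cm of sterilized diluvial soil. Boxes stay in a greenhouse at 25° C. to 30° C. Three weeks later, each species is graded on previously defined criteria.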

lambsquarters [2] = experiment: Test Example 5: herbicidal effect by foliage application, plastic box (Table 20, symbol O); type: in vivo, lambsquarters (Chenopodium album); details: foliage application, 320 g/ha, 3 weeks after application
How it was run: (§2)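 Sow seeds spot-wise in sterilized diluvial soil; cover with ~1.5 cm soil. Grow 14 days in greenhouse, 25° C. to 30° C. Spray foliage with emulsion diluted to predetermined amount. Rate effect after 3 weeks.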

windgrass [3] = experiment: Test Example 5: herbicidal effect by foliage application, plastic box (Table 20, symbol L); type: in vivo, windgrass (Apera spica-venti); details: foliage application, 320 g/ha, 3 weeks after application
How it was run: as §2

persian speedwell [4] = experiment: Test Example 4: herbicidal effect by soil treatment (Table 19, symbol R); type: in vivo, Persian speedwell (Veronica persica); details: 320 g/ha
How it was run: as §1

redroot pigweed = experiment: Test Example 4: herbicidal effect by soil treatment (Table 19, symbol N); type: in vivo, redroot pigweed (Amaranthus retroflexus); details: 320 g/ha
How it was run: as §1

wild oat [5] = experiment: Test Example 5: herbicidal effect by foliage application, plastic box (Table 20, symbol I); type: in vivo, wild oat (Avena fatua); details: foliage application, 320 g/ha, 3 weeks after application
How it was run: as §2

Chinese sprangletop = experiment: Test Example 3: herbicidal effect by foliage application, Wagner pot (Table 18, symbol D); type: in vivo, chinese sprangletop (Leptochloa chinensis); details: 320 g/ha
How it was run: (§3)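 Plants were sown in alluvial soil held under 0.1–0.5 cm standing water and grown 14 days in a greenhouse at 25–30 °C. An emulsifiable formulation, water-diluted to the set dose, was then sprayed onto the foliage, and effects were scored three weeks later using previously defined criteria.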

green foxtail [6] = experiment: Test Example 4: herbicidal effect by soil treatment (Table 19, symbol G); type: in vivo, green foxtail (Setaria viridis); details: 320 g/ha
How it was run: as §1

chickweed = experiment: Test Example 4: herbicidal effect by soil treatment (Table 19, symbol P); type: in vivo, common chickweed (Stellaria media); details: 320 g/ha
How it was run: as §1

Italian ryegrass [7] = experiment: Test Example 4: herbicidal effect by soil treatment (Table 19, symbol K); type: in vivo, Italian ryegrass (Lolium multiflorum); details: 320 g/ha
How it was run: as §1

Italian ryegrass [8] = experiment: Test Example 5: herbicidal effect by foliage application, plastic box (Table 20, symbol K); type: in vivo, Italian ryegrass (Lolium multiflorum); details: foliage application, 320 g/ha, 3 weeks after application
How it was run: as §2

southern crabgrass [9] = experiment: Test Example 4: herbicidal effect by soil treatment (Table 19, symbol F); type: in vivo, southern crabgrass (Digitaria ciliaris); details: 320 g/ha
How it was run: as §1

late watergrass = experiment: Test Example 1: herbicidal activity, application before weed generation under submerged conditions (Table 16, symbol A); type: in vivo, late watergrass (Echinochloa oryzicola); details: 320 g/ha applied herbicide
How it was run: (§4)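 Alluvial soil was flooded to 4 cm depth, weed seeds were sown mixed and 2.5-leaf rice seedlings were transplanted. On sowing day, the compound's emulsion, diluted in water to a set dose, was applied to the water surface. Plants grew at 25–30 °C and were scored 0–5 after three weeks.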

Japanese bulrush = experiment: Test Example 1: herbicidal activity, application before weed generation under submerged conditions (Table 16, symbol B); type: in vivo, Japanese bulrush (Schoenoplectus juncoides); details: 320 g/ha applied herbicide
How it was run: as §4

lambsquarters [10] = experiment: Test Example 4: herbicidal effect by soil treatment (Table 19, symbol O); type: in vivo, lambsquarters (Chenopodium album); details: 320 g/ha
How it was run: as §1

velvetleaf [11] = experiment: Test Example 4: herbicidal effect by soil treatment (Table 19, symbol M); type: in vivo, velvetleaf (Abutilon theophrasti); details: 320 g/ha
How it was run: as §1

barnyard grass [12] = experiment: Test Example 5: herbicidal effect by foliage application, plastic box (Table 20, symbol H); type: in vivo, barnyard grass (Echinochloa crus-galli); details: foliage application, 320 g/ha, 3 weeks after application
How it was run: as §2

southern crabgrass [13] = experiment: Test Example 5: herbicidal effect by foliage application, plastic box (Table 20, symbol F); type: in vivo, southern crabgrass (Digitaria ciliaris); details: foliage application, 320 g/ha, 3 weeks after application
How it was run: as §2

persian speedwell [14] = experiment: Test Example 5: herbicidal effect by foliage application, plastic box (Table 20, symbol R); type: in vivo, Persian speedwell (Veronica persica); details: foliage application, 320 g/ha, 3 weeks after application
How it was run: as §2

blackgrass [15] = experiment: Test Example 5: herbicidal effect by foliage application, plastic box (Table 20, symbol J); type: in vivo, blackgrass (Alopecurus myosuroides); details: foliage application, 320 g/ha, 3 weeks after application
How it was run: as §2

barnyard grass [16] = experiment: Test Example 3: herbicidal effect by foliage application, Wagner pot (Table 18, symbol H); type: in vivo, barnyard grass (Echinochloa crus-galli); details: 320 g/ha
How it was run: as §3

barnyard grass [17] = experiment: Test Example 4: herbicidal effect by soil treatment (Table 19, symbol H); type: in vivo, barnyard grass (Echinochloa crus-galli); details: 320 g/ha
How it was run: as §1

rice flat sedge = experiment: Test Example 3: herbicidal effect by foliage application, Wagner pot (Table 18, symbol E); type: in vivo, rice flat sedge (Cyperus iria); details: 320 g/ha
How it was run: as §3

green foxtail [18] = experiment: Test Example 5: herbicidal effect by foliage application, plastic box (Table 20, symbol G); type: in vivo, green foxtail (Setaria viridis); details: foliage application, 320 g/ha, 3 weeks after application
How it was run: as §2

wild oat [19] = experiment: Test Example 4: herbicidal effect by soil treatment (Table 19, symbol I); type: in vivo, wild oat (Avena fatua); details: 320 g/ha
How it was run: as §1

oval-leafed pondweed = experiment: Test Example 1: herbicidal activity, application before weed generation under submerged conditions (Table 16, symbol C); type: in vivo, oval-leafed pondweed (Monochoria vaginalis); details: 320 g/ha applied herbicide
How it was run: as §4

blackgrass [20] = experiment: Test Example 4: herbicidal effect by soil treatment (Table 19, symbol J); type: in vivo, blackgrass (Alopecurus myosuroides); details: 320 g/ha
How it was run: as §1

velvetleaf [21] = experiment: Test Example 5: herbicidal effect by foliage application, plastic box (Table 20, symbol M); type: in vivo, velvetleaf (Abutilon theophrasti); details: foliage application, 320 g/ha, 3 weeks after application
How it was run: as §2

SMILES	herbicidal effect rating, L: windgrass (windgrass [1])	effect on lambsquarters (O) (lambsquarters [2])	effect on windgrass (L) (windgrass [3])	herbicidal effect rating, R: persian speedwell (persian speedwell [4])	herbicidal effect rating, N: redroot pigweed (redroot pigweed)	effect on wild oat (I) (wild oat [5])	herbicidal effect on D (Chinese sprangletop), rating 0-5 (Chinese sprangletop)	herbicidal effect rating, G: green foxtail (green foxtail [6])	herbicidal effect rating, P: chickweed (chickweed)	herbicidal effect rating, K: Italian ryegrass (Italian ryegrass [7])	effect on Italian ryegrass (K) (Italian ryegrass [8])	herbicidal effect rating, F: southern crabgrass (southern crabgrass [9])	Herbicidal effect on A: late watergrass (grade 0-5) (late watergrass)	Herbicidal effect on B: Japanese bulrush (grade 0-5) (Japanese bulrush)	herbicidal effect rating, O: lambsquarters (lambsquarters [10])	herbicidal effect rating, M: velvetleaf (velvetleaf [11])	effect on barnyard grass (H) (barnyard grass [12])	effect on southern crabgrass (F) (southern crabgrass [13])	effect on persian speedwell (R) (persian speedwell [14])	effect on blackgrass (J) (blackgrass [15])	further results
CCOC(=O)Oc1c(C)nn(C)c(=O)c1-c1c(-c2ccc(F)cc2)sc2ccc(F)cc12 [2-004]	0 (Herbicidal rate of 5% or less (almost no effect))	3 (Herbicidal rate of 40% or more and less than 70%)	3 (Herbicidal rate of 40% or more and less than 70%)	1 (Herbicidal rate of 5% or more and less than 20%)	5 (Herbicidal rate of 90% or more (almost completely withered))	0 (Herbicidal rate of 5% or less (almost no effect))	3 (Herbicidal rate of 40% or more and less than 70%)	5 (Herbicidal rate of 90% or more (almost completely withered))	5 (Herbicidal rate of 90% or more (almost completely withered))	5 (Herbicidal rate of 90% or more (almost completely withered))	5 (Herbicidal rate of 90% or more (almost completely withered))	4 (Herbicidal rate of 70% or more and less than 90%)	0 (Herbicidal rate of 5% or less (almost no effect))	2 (Herbicidal rate of 20% or more and less than 40%)	5 (Herbicidal rate of 90% or more (almost completely withered))	3 (Herbicidal rate of 40% or more and less than 70%)	4 (Herbicidal rate of 70% or more and less than 90%)	4 (Herbicidal rate of 70% or more and less than 90%)	5 (Herbicidal rate of 90% or more (almost completely withered))	4 (Herbicidal rate of 70% or more and less than 90%)	herbicidal effect on H (barnyard grass), rating 0-5 (barnyard grass [16]): 5 (Herbicidal rate of 90% or more (almost completely withered)); herbicidal effect rating, H: barnyard grass (barnyard grass [17]): 4 (Herbicidal rate of 70% or more and less than 90%); herbicidal effect on E (rice flat sedge), rating 0-5 (rice flat sedge): 4 (Herbicidal rate of 70% or more and less than 90%); effect on green foxtail (G) (green foxtail [18]): 5 (Herbicidal rate of 90% or more (almost completely withered)); herbicidal effect rating, I: wild oat (wild oat [19]): 0 (Herbicidal rate of 5% or less (almost no effect)); Herbicidal effect on C: oval-leafed pondweed (grade 0-5) (oval-leafed pondweed): 2 (Herbicidal rate of 20% or more and less than 40%); herbicidal effect rating, J: blackgrass (blackgrass [20]): 0 (Herbicidal rate of 5% or less (almost no effect)); effect on velvetleaf (M) (velvetleaf [21]): 5 (Herbicidal rate of 90% or more (almost completely withered))
Cc1nn(C)c(=O)c(-c2c(-c3ccc(F)cc3)sc3ccc(F)cc23)c1OC(=O)c1ccccc1Cl [2-005]	0 (Herbicidal rate of 5% or less (almost no effect))	3 (Herbicidal rate of 40% or more and less than 70%)	0 (Herbicidal rate of 5% or less (almost no effect))	3 (Herbicidal rate of 40% or more and less than 70%)	4 (Herbicidal rate of 70% or more and less than 90%)	0 (Herbicidal rate of 5% or less (almost no effect))	3 (Herbicidal rate of 40% or more and less than 70%)	5 (Herbicidal rate of 90% or more (almost completely withered))	4 (Herbicidal rate of 70% or more and less than 90%)	4 (Herbicidal rate of 70% or more and less than 90%)	4 (Herbicidal rate of 70% or more and less than 90%)	5 (Herbicidal rate of 90% or more (almost completely withered))	0 (Herbicidal rate of 5% or less (almost no effect))	2 (Herbicidal rate of 20% or more and less than 40%)	4 (Herbicidal rate of 70% or more and less than 90%)	4 (Herbicidal rate of 70% or more and less than 90%)	4 (Herbicidal rate of 70% or more and less than 90%)	5 (Herbicidal rate of 90% or more (almost completely withered))	4 (Herbicidal rate of 70% or more and less than 90%)	3 (Herbicidal rate of 40% or more and less than 70%)	herbicidal effect on H (barnyard grass), rating 0-5 (barnyard grass [16]): 5 (Herbicidal rate of 90% or more (almost completely withered)); herbicidal effect rating, H: barnyard grass (barnyard grass [17]): 4 (Herbicidal rate of 70% or more and less than 90%); herbicidal effect on E (rice flat sedge), rating 0-5 (rice flat sedge): 5 (Herbicidal rate of 90% or more (almost completely withered)); effect on green foxtail (G) (green foxtail [18]): 5 (Herbicidal rate of 90% or more (almost completely withered)); herbicidal effect rating, I: wild oat (wild oat [19]): 0 (Herbicidal rate of 5% or less (almost no effect)); Herbicidal effect on C: oval-leafed pondweed (grade 0-5) (oval-leafed pondweed): 2 (Herbicidal rate of 20% or more and less than 40%); herbicidal effect rating, J: blackgrass (blackgrass [20]): 0 (Herbicidal rate of 5% or less (almost no effect)); effect on velvetleaf (M) (velvetleaf [21]): 4 (Herbicidal rate of 70% or more and less than 90%)
